Experimental data: the supplement of paper PMC12137928
Where a name gives a salt, the structure may show the parent alone.

Test system: HCT116
Conditions: 72 h
Summary of the method: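 After seeding at 250 cells per well in 1536-well plates, HCT116 cells were given 5 h to attach. CellTiter-Glo luminescence, scaled to 0% for vehicle and -100% for positive control, was pattern-corrected. Fitting with a four-parameter Hill model produced IC50 and maximal efficacy.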

SMILES | IC50 cell viability (ICRF193 0 nM) | IC50 cell viability (ICRF193 200 nM)
NS(=O)(=O)c1cc2c(cc1C(F)(F)F)NCNS2(=O)=O [Hydroflumethiazide] | > 45.8 µM | > 45.8 µM
COc1ccc2[nH]c([S+]([O-])Cc3ncc(C)c(OC)c3C)nc2n1 (stereo not given) [Tenatoprazole] | > 45.8 µM | > 45.8 µM
CCOC(=O)C1(c2ccccc2)CCCN(C)CC1 (stereo not given) [Ethoheptazine hydrochloride] | > 45.8 µM | > 45.8 µM
CC(CNC1CCCCC1)OC(=O)c1ccccc1 (stereo not given) [Hexylcaine hydrochloride] | > 45.8 µM | > 45.8 µM
CCCC(=O)OCOC(=O)C1=C(C)NC(C)=C(C(=O)OC)C1c1cccc(Cl)c1Cl (stereo not given) [Clevidipine] | > 45.8 µM | > 45.8 µM
CCCCOC(=O)C(=O)Nc1cccc(-c2nnn[nH]2)c1 [Tazanolast] | > 45.8 µM | > 45.8 µM
CC(=O)NCCCS(=O)(=O)O [Acamprosate Calcium] | > 45.8 µM | > 45.8 µM
COc1ccc(C2CNC(=O)C2)cc1OC1CCCC1 (stereo not given) [Rolipram] | > 45.8 µM | > 45.8 µM
CC(C)=CCC/C(C)=C/CC/C(C)=C/CC/C(C)=C/CC/C(C)=C/CC1=C(C)C(=O)c2ccccc2C1=O [Menaquinone] | > 45.8 µM | > 45.8 µM
NC(=O)CN1CCCC1=O [Piracetam] | > 45.8 µM | > 45.8 µM
C[C@@H]1CC2=CC(=O)CC[C@@H]2[C@H]2CC[C@@]3(C)[C@@H](CC[C@]3(C)O)[C@@H]21 [Mibolerone] | > 45.8 µM | > 45.8 µM
Oc1ncc(N(CCCl)CCCl)c(O)n1 [Uracil mustard] | > 45.8 µM | > 45.8 µM
CCN(CC)CCOc1ccc2nc(N(C)C)sc2c1 [Diamthazole] | > 45.8 µM | > 45.8 µM
COC(=O)C1=C(C)NC(C)=C(C(=O)OCCc2ccc(N3CCN(C(c4ccccc4)c4ccccc4)CC3)cc2)C1c1cccc([N+](=O)[O-])c1 (stereo not given) [Watanidipine] | > 45.8 µM | > 45.8 µM
CCOc1ccc2nc(S(N)(=O)=O)sc2c1 [Ethoxzolamide] | > 45.8 µM | > 45.8 µM
COc1cc(O)c(C(=O)c2ccccc2)cc1S(=O)(=O)O [Sulisobenzone] | > 45.8 µM | > 45.8 µM
CN1CCC(OC(c2ccccc2)c2ccccc2)CC1 [Diphenylpyraline hydrochloride] | > 45.8 µM | > 45.8 µM
CC(C)[C@@H]1CC[C@@H](C)CC1=O [(2S,5R)-5-Methyl-2-(propan-2-yl)cyclohexanone] | > 45.8 µM | > 45.8 µM
C[C@H](CS)C(=O)N1CCC[C@H]1C(=O)O [Captopril] | > 45.8 µM | > 45.8 µM
CCCCCCCCCC(=O)O [Decanoic acid] | > 45.8 µM | > 45.8 µM
CCCCc1cc2c(=O)c(C(=O)OC)c[nH]c2cc1OCc1ccccc1 [Nequinate] | > 45.8 µM | > 45.8 µM
Cc1cccc(N(C)C(=S)Oc2ccc3ccccc3c2)c1 [Tolnaftate] | > 45.8 µM | > 45.8 µM

SMILES | IC50 cell viability (ICRF193 0 nM) | IC50 cell viability (ICRF193 200 nM)
CCO[C@@H](Cc1ccc(OCCc2ccc(OS(C)(=O)=O)cc2)cc1)C(=O)O [Tesaglitazar] | > 45.8 µM | > 45.8 µM
CCCCCCCCCCCCSCCOCCOCCOCCOCCOCCOCCOCCOCCOCCO [Laureth 10s] | > 45.8 µM | > 45.8 µM
CN(CC(O)CO)C(=O)c1c(I)c(NC(=O)C(CO)CO)c(I)c(C(=O)N(C)CC(O)CO)c1I (stereo not given) [IOBITRIDOL] | > 45.8 µM | > 45.8 µM
COC(=O)c1cc(Cl)ccc1NS(=O)(=O)C(F)(F)F [Amidoflumet] | > 45.8 µM | > 45.8 µM
CC1C=CC=CCCC=CC=CC=CC=CC(OC2OC(C)C(O)C(N)C2O)CC2OC(O)(CC(O)C(O)CCC(O)CC(O)CC(O)CC(=O)OC(C)C(C)C1O)CC(O)C2C(=O)O (stereo not given) [NYSTATIN] | > 45.8 µM | > 45.8 µM
CCCNC(=O)NS(=O)(=O)c1ccc(Cl)cc1 [Chlorpropamide] | > 45.8 µM | > 45.8 µM
COCCCN1CCC(NC(=O)c2cc(Cl)c(N)c3c2OCC3)CC1 [Prucalopride] | > 45.8 µM | > 45.8 µM
CCOC(=O)c1cnc2cc(OCC(C)C)c(OCC(C)C)cc2c1O [Buquinolate] | > 45.8 µM | > 45.8 µM
O=C(O)[C@@H](S)[C@H](S)C(=O)O [(2R,3R)-2,3-Dimercaptosuccinic acid] | > 45.8 µM | > 45.8 µM
CCOc1ccc(NC(=O)CC(C)O)cc1 (stereo not given) [3-Hydroxy-4-butyrophenetidide] | > 45.8 µM | > 45.8 µM
FC(F)(F)C(F)(F)C(F)(F)C(F)(F)C(F)(F)C(F)(F)C(F)(F)C(F)(F)Br [1-Bromoheptadecafluorooctane] | > 45.8 µM | > 45.8 µM
N=C(N)NCCCC[C@@H]1NC(=O)CCSSC[C@@H](C(N)=O)NC(=O)[C@@H]2CCCN2C(=O)[C@H](Cc2c[nH]c3ccccc23)NC(=O)[C@H](CC(=O)O)NC(=O)CNC1=O [Eptifibatide] | > 45.8 µM | > 45.8 µM
O.O.O=C(O)c1cc(O)c2c(c1)[O][Bi][O]2 [Bismuth(III) gallate basic hydrate] | > 45.8 µM | > 45.8 µM
CN(C)CCOC(c1ccc(Cl)cc1)c1ccccn1 (stereo not given) [Carbinoxamine maleate] | > 45.8 µM | > 45.8 µM
CC(C)(C(=O)O)c1ccc(C(O)CCCN2CCC(C(O)(c3ccccc3)c3ccccc3)CC2)cc1 (stereo not given) [Fexofenadine hydrochloride] | > 45.8 µM | > 45.8 µM
COc1ccc(-c2ccc3cc(C(=O)O)ccc3c2)cc1C12CC3CC(CC(C3)C1)C2 [Adapalene] | > 45.8 µM | > 45.8 µM
Cc1nccn1CCC(C(N)=O)(c1ccccc1)c1ccccc1 [Imidafenacin] | > 45.8 µM | > 45.8 µM
CCN(CC)CC(=O)OCC(=O)[C@@]1(O)CC[C@H]2[C@@H]3CCC4=CC(=O)CC[C@]4(C)[C@H]3[C@@H](O)C[C@@]21C [Hydrocortamate] | > 45.8 µM | > 45.8 µM
C[C@]12C=CC(=O)C=C1CC[C@@H]1[C@@H]2[C@@H](O)C[C@@]2(C)[C@H]1CC[C@]2(O)C(=O)CO [Prednisolone] | > 45.8 µM | > 45.8 µM
Clc1ccc(C(c2ccccc2Cl)C(Cl)Cl)cc1 (stereo not given) [Mitotane] | > 45.8 µM | > 45.8 µM
CCc1cccc(CC)c1NC(=O)CN(CC(=O)O)CC(=O)O [Etifenin] | > 45.8 µM | > 45.8 µM
C[C@@H](O)[C@H](N)C(=O)O [L-Threonine] | > 45.8 µM | > 45.8 µM

SMILES | IC50 cell viability (ICRF193 0 nM) | IC50 cell viability (ICRF193 200 nM)
CN(Cc1ccc(C(C)(C)C)cc1)Cc1cccc2ccccc12 [Butenafine] | > 45.8 µM | > 45.8 µM
CC(C)=CCC/C(C)=C/CC/C(C)=C/CC/C=C(\C)CC/C=C(\C)CCC=C(C)C [Squalene] | > 45.8 µM | > 45.8 µM
Cc1c(Cl)c(=O)oc2cc(OP(=O)(OCCCl)OCCCl)ccc12 [Haloxon] | > 45.8 µM | > 45.8 µM
CC(=O)Oc1cccc(O)c1 [Resorcinol monoacetate] | > 45.8 µM | > 45.8 µM
C=CCC1=C(C)C(OC(=O)C2C(C=C(C)C)C2(C)C)CC1=O (stereo not given) [Allethrin] | > 45.8 µM | > 45.8 µM
CC(C[N+](C)(C)C)OC(N)=O (stereo not given) [Bethanechol chloride] | > 45.8 µM | > 45.8 µM
O=c1[nH]c2ccccc2n1CCN1CCN(c2cccc(C(F)(F)F)c2)CC1 [FLIBANSERIN] | > 45.8 µM | > 45.8 µM
CC[N+](C)(CC)CCOC(=O)C1c2ccccc2Oc2ccccc21 [Methantheline bromide] | > 45.8 µM | > 45.8 µM
C[N+]12CCC(CC1)C(OC(=O)C(O)(c1ccccc1)c1ccccc1)C2 (stereo not given) [Clidinium bromide] | > 45.8 µM | > 45.8 µM
Cc1cc(C(=O)NNCc2ccccc2)no1 [Isocarboxazid] | > 45.8 µM | > 45.8 µM
Cc1cc2c(cc1S(N)(=O)=O)S(=O)(=O)CCC2 [Meticrane] | > 45.8 µM | > 45.8 µM
CCC[C@@H]1C[C@@H](C(=O)N[C@@H]([C@H]2O[C@H](SC)[C@H](OP(=O)(O)O)[C@@H](O)[C@H]2O)[C@H](C)Cl)N(C)C1 [Clindamycin Phosphate] | > 45.8 µM | > 45.8 µM
CCC(NC(C)C)C(O)c1ccc(O)c(O)c1 (stereo not given) [ISOETHARINE MESYLATE] | > 45.8 µM | > 45.8 µM
C=C1[C@H](CO)[C@@H](O)C[C@@H]1n1cnc2c(=O)[nH]c(N)nc21 [Entecavir (monohydrate)] | > 45.8 µM | > 45.8 µM
CC(C)[C@H](N)C(=O)OCC(CO)OCn1cnc2c(=O)[nH]c(N)nc21 (stereo not given in full) [Valganciclovir·HCl] | > 45.8 µM | > 45.8 µM
CCCCCCCCCCCC(=O)OCC(O)CO (stereo not given) [GLYCERYL LAURATE] | > 45.8 µM | > 45.8 µM
Nc1nc(N)nc(-c2cc(Cl)ccc2Cl)n1 [Irsogladine maleate] | > 45.8 µM | > 45.8 µM
O=C(Nc1ccc(Br)cc1)c1cc(Br)cc(Br)c1O [Tribromsalan] | > 45.8 µM | > 45.8 µM
N[C@@H](Cc1cc(I)c(Oc2cc(I)c(O)c(I)c2)c(I)c1)C(=O)O [L-Thyroxine] | > 45.8 µM | > 45.8 µM
O=C(O)c1ccccc1Nc1cccc(C(F)(F)F)c1 [Flufenamic acid] | > 45.8 µM | > 45.8 µM
Cn1c(=O)cc(N2CCC[C@@H](N)C2)n(Cc2cc(F)ccc2C#N)c1=O [Trelagliptin succinate] | > 45.8 µM | > 45.8 µM
